In article PMC5412012, “HS1BP3 negatively regulates autophagy by modulation of phosphatidic acid levels” (Nature Communications, 2016):

Legend:
[1] = molecular target: T1, HS1BP3 (full length, GST-tagged) (Homo sapiens, UniProt Q53T59); test: liposome floatation (Nycodenz), Coomassie gel; format: binding; conditions: 5 uM GST-tagged protein, 2 mM total lipid, 20 mM Hepes pH 7.4, 150 mM NaCl, 1 mM MgCl2, 25 °C; PA in liposomes
T1 construct: full length, N-terminal PX domain plus unstructured C terminus; GST-tagged (floatation) or MBP-tagged (lipid strips), expressed in Escherichia coli
T1 sequence (Q53T59 1-392): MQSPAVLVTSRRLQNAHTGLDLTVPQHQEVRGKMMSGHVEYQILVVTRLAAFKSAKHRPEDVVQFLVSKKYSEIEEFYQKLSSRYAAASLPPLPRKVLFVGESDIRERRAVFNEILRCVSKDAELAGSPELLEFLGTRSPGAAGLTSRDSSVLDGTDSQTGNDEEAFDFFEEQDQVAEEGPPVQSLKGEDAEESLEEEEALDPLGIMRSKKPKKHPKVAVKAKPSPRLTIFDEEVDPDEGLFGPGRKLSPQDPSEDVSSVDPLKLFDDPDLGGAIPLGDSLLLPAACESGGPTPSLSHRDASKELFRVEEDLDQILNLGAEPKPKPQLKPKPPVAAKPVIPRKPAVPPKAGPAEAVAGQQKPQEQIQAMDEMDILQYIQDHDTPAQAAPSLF

[2] = molecular target: T2, HS1BP3-PX (PX domain, GST-tagged) (Homo sapiens, UniProt Q53T59); test: liposome floatation (Nycodenz), Coomassie gel; format: binding; conditions: 5 uM GST-tagged protein, 2 mM total lipid, 20 mM Hepes pH 7.4, 150 mM NaCl, 1 mM MgCl2, 25 °C; PA in liposomes
T2 construct: N-terminal PX domain only, lacks C-terminal part; by primers starts at Met1 (MQSPAVL) and ends ...EFLGTRS; GST- or MBP-tagged, expressed in Escherichia coli
T2 sequence (Q53T59 1-139): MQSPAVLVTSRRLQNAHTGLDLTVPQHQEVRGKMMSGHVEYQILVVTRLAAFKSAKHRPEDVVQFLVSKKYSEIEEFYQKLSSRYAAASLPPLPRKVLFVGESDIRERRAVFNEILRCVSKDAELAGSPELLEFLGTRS

## CCCCCCCC/C=C\CCCCCCCC(=O)OC[C@H](COP(=O)(O)O)OC(=O)CCCCCCC/C=C\CCCCCCCC [dioleyoyl-phosphatidic acid]
[1]
  liposome floatation (Nycodenz), Coomassie gel: binding of both HS1BP3 and the PX domain to PA increase with increasing concentrations
[2]
  liposome floatation (Nycodenz), Coomassie gel: binding of both HS1BP3 and the PX domain to PA increase with increasing concentrations
